In brackets after ≈: the same amount, converted by molar mass.
Key:
Motilin receptor [1] = molecular target: T1, Motilin receptor (Oryctolagus cuniculus, UniProt A5A4K8); assay: In vitro binding affinity towards motilin receptor was determined in rabbit small intestinal smooth muscle tissue homogenate; type: tissue-based
Canis familiaris [2] = assay: In vivo contractile activity in the gastric antrum and the small intestine in fasted conscious dogs upon intragastric administration was determined; type: functional, Canis lupus familiaris
Oryctolagus cuniculus = species on record: Oryctolagus cuniculus; assay: In vitro contractile activity was measured in the rabbit duodenum preparation; type: functional
Streptococcus pneumoniae = assay: Tested for antimicrobial activity against Streptococcus pneumoniae No. 12; type: functional
Canis familiaris [3] = assay: In vivo contractile activity in the gastric antrum and the small intestine in fasted conscious dogs upon intravenous administration was determined; type: functional, Canis lupus familiaris
Motilin receptor [4] = molecular target: T1, Motilin receptor; assay: In vitro binding affinity towards motilin receptor was determined after treatment with hydrochloric acid in rabbit small intestinal smooth muscle tissue homogenate; type: tissue-based
Klebsiella pneumoniae = assay: Tested for antimicrobial activity against Klebsiella pneumoniae IFO 3512; type: functional
Bacillus subtilis = assay: Tested for antimicrobial activity against Bacillus subtilis ATCC 6633; type: functional
Staphylococcus aureus = assay: Tested for antimicrobial activity against Staphylococcus aureus 209P; type: functional

T1 sequence (A5A4K8 whole entry): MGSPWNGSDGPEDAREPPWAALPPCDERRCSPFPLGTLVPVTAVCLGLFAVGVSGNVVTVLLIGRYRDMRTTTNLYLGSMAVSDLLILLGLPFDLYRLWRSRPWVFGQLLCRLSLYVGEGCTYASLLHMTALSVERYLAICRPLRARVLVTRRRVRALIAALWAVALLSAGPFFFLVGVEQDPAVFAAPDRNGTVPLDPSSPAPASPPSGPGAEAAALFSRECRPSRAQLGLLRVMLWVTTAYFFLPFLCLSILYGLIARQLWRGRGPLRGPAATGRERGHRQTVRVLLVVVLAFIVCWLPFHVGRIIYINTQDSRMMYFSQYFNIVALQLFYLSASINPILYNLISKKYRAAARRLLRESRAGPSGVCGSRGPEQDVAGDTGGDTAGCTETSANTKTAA

| SMILES | IC50 (Motilin receptor [1]) [nM] | MI100 (Canis familiaris [2]) [µg/kg] | EC50 (Oryctolagus cuniculus) [nM] | MIC (Streptococcus pneumoniae) [µg/mL] | MI100 (Canis familiaris [3]) [µg/kg] | IC50 (Motilin receptor [4]) [nM] | MIC (Klebsiella pneumoniae) [µg/mL] | MIC (Streptococcus pneumoniae; read-out: MIC) [µM] | MIC (Bacillus subtilis) [µg/mL] | MIC (Staphylococcus aureus) [µg/mL] |
| --- | --- | --- | --- | --- | --- | --- | --- | --- | --- | --- |
| CCC1OC(=O)C(C)C(O[C@H]2C[C@@](C)(OC)CC(C)O2)C(C)[C@@H](OC2OC(C)CC(N(C)C(C)C)[C@H]2O)[C@]2(C)CC(C)=C(O2)[C@H](C)C(=O)[C@]1(C)OC (some centres undefined) | 2.51 | 0.3 | 6.17 | 100 | 0.09 | 1.78 |  |  |  |  |
| CCC1OC(=O)C(C)C(O[C@H]2C[C@@](C)(OC)CC(C)O2)C(C)[C@@H](OC2CC(N(C)C(C)C)CC(C)O2)[C@]2(C)CC(C)=C(O2)[C@H](C)C(=O)[C@]1(C)OC (some centres undefined) | 1.86 |  | 209 |  | >70 |  |  |  |  |  |
| CCC1OC(=O)C(C)C(O[C@H]2C[C@@](C)(OC)CC(C)O2)C(C)[C@@H](OC2OC(C)CC(N(C)CC)[C@H]2O)[C@]2(C)CC(C)=C(O2)[C@H](C)C(=O)[C@]1(C)OC (some centres undefined) | 3.47 | 0.2 | 9.12 | 100 | 0.3 | 3.8 |  |  |  |  |
| CCC1OC(=O)C(C)C(O[C@H]2C[C@@](C)(OC)CC(C)O2)C(C)[C@@H](OC2OC(C)CC(N(C)C)[C@H]2O)[C@]2(C)CC(C)=C(O2)[C@H](C)C(=O)[C@]1(C)OC (some centres undefined) | 2.29 | 1.2 | 10.5 |  | 0.4 | 3.89 | 100 (≈ 140 µM) | 1600 | 50 (≈ 70.2 µM) | 100 (≈ 140 µM) |

Source: ChEMBL document CHEMBL1127928, “Macrolide-type motilin receptor agonists: Assessment of the biological value of the 2- and 4-hydroxyl groups of acid-stable 8,9-anhydroerythromycin A 6,9-hemiacetals” (Bioorg Med Chem Lett, 1994)
